Earlier results as cited in patent publication EP1204793B1, “STABLE SILICONE OIL EMULSION COMPOSITION, ARTICLE OF MANUFACTURE, AND METHOD OF FABRIC WRINKLE CONTROL” (THE PROCTER & GAMBLE COMPANY, priority 1999, dated 2001).
Counter-ions that a name gives are not always drawn.

solubility in water | Structure (SMILES)
about 1.8% | [H]/N=C(\N/C(=N/[H])NCCCCCCNC(=N)NC(=N)Nc1ccc(Cl)cc1)Nc1ccc(Cl)cc1 [diacetate salt, 1,1'-hexamethylene bis(5-(p-chlorophenyl)biguanide)]
about 70% | [H]/N=C(\N/C(=N/[H])NCCCCCCNC(=N)NC(=N)Nc1ccc(Cl)cc1)Nc1ccc(Cl)cc1 [digluconate salt, 1,1'-hexamethylene bis(5-(p-chlorophenyl)biguanide)]
